From paper PMC11430712, “The Endocannabinoid Peptide RVD-Hemopressin Is a TRPV1 Channel Blocker” (Biomolecules, 2024)
“Also recorded” adds a separate entry of the source. Blank lines part the entries; values can stand above or below the molecule they belong to. Peptide text beside a SMILES is read from it.

Legend:
TRPV1 channel = test system: TRPV1 channel; design: method as in 4 sources, ref [12]; anandamide and 2-AG ref [13],[14],[15],[16] ||| ref [88],[89] = [88]; PMID 27281200; doi:10.1038/nature17964; 88. Gao Y. Cao E. Julius D. Cheng Y. TRPV1 structures in nanodiscs reveal mechanisms of ligand and lipid action Nature 2016 534 347 351 10.1038/nature17964 27281200 PMC4911334 || [89]; PMID 37117175; doi:10.1038/s41467-023-38162-9; 89. Neuberger A. Oda M. Nikolaev Y.A. Nadezhdin K.D. Gracheva E.O. Bagriantsev S.N. Sobolevsky A.I. Human TRPV1 structure and inhibition by the analgesic SB-366791 Nat. Commun. 2023 14 2451 10.1038/s4 ||| ref [90] = [90]; PMID 38698206; doi:10.1038/s41594-024-01299-2; 90. Arnold W.R. Mancino A. Moss F.R. Frost A. Julius D. Cheng Y. Structural basis of TRPV1 modulation by endogenous bioactive lipids Nat. Struct. Mol. Biol. 2024 1 9 10.1038/s41594-024-01299-2 3869820 ||| ref [67] = [67]; PMID 29117570; doi:10.1016/j.celrep.2017.10.063; 67. Nersesyan Y. Demirkhanyan L. Cabezas-Bratesco D. Oakes V. Kusuda R. Dawson T. Sun X. Cao C. Cohen A.M. Chelluboina B. Oxytocin Modulates Nociception as an Agonist of Pain-Sensing TRPV1 Cell Rep. 2; details: cited from earlier work; for TRPV1 activation: capsaicin ref [12], anandamide and 2-AG ref [13],[14],[15],[16]; for TRPV1 channel state: vanilloid pocket, ref [90]
Description: The transient receptor potential (TRP) channels family involves several subfamilies, including the vanilloid (TRPVs) group. TRPV1, a member of the TRPV subfamily, is a non-selective cationic homotetramer channel. It is known to be activated by various stimuli, including temperature, capsaicin (the principal compound in chili peppers), and endocannabinoids such as anandamide (AEA) and 2-arachidonoylglycerol (2-AG). The TRPV1 channel protein is found in the central (CNS) and peripheral nervous system (PNS). In the CNS, TRPV1 is expressed in the prefrontal cort ... || Molecular dynamics (MD) simulations allow studying protein dynamics at an atomic level under physiological conditions, enhancing our understanding of various proteins, including ion channels like TRPV1 [82]. These simulations provide insight into their function, conformational changes, and interactions with different ligands.

[1] = individuals with osteoarthritis; ref [99]; cited from earlier work
Description: Capsaicin creams and patches have been used in the treatment of muscle pain, neuropathic pain, arthritis, and migraines. […] CNTX-4975 has been developed as a treatment option for pain in individuals with osteoarthritis.

human TRPV1 channel [2] = target: T1, human TRPV1 channel (Homo sapiens, UniProt Q8NER1); assay: Whole-cell voltage-clamp recording of TRPV1 currents, HEK293 cells with human TRPV1-GFP; assay type: cell-based
T1 construct: host or cells: HEK293
Method: (§1) Dr. Alejandro Maureira, Universidad Católica del Maule, Chile, generously provided HEK293 cells. The cells were cultured in T75 flasks (Corning Inc., Corning, NY, USA) in a humidified atmosphere at 37 °C with 5% CO2 in Dulbecco’s Modified Eagle Medium (DMEM) with high glucose (Cytiva, Marlborough, MA, USA), supplemented with 10% fetal bovine serum (Cytiva, Marlborough, MA, USA) and a mixture of 100 IU/mL penicillin and 100 µg/mL streptomycin (Corning Inc., Corning, NY, USA) in a CO2CELL incubator (MMM Group, Munich, Germany). This procedure was used to maintain the cells for all of the experiments.
(§2) HEK293 cells were transfected with the human TRPV1 channel coupled to GFP in its C-terminus (TRPV1-GFP, catalog #: RG217653, Origene, Rockville, MD, USA). […] Transfections were conducted using Lipofectamine 3000 (Invitrogen, Waltham, MA, USA), according to the manufacturer’s instructions. Experimental protocols were performed 24 h post-transfection.
Untransfected and transfected HEK293 cells with the human TRPV1-GFP were recorded using a whole-cell voltage clamp. Cells were cultured in 15 mm round coverslips pretreated with 0.1 mg/mL poly-L-lysine (Gibco, Billings, MT, USA) and transfected with TRPV1-GFP plasmid. TRPV1-GFP-positive cells were identified using a 405 nm LED light in a Nikon Eclipse Ts2 inverted microscope. Borosilicate pipettes (nº 1B150F-4, World Precision Instruments, Sarasota, FL, USA) of 2.8’5 MΩ were used. Pipettes were pulled with a P-97 Micropipette Puller (Sutter Instruments, Novato, CA, USA). The extracellular solution contained (in mM) 140 NaCl, 5 KCl, 2 CaCl2, 1 MgCl2, 10 HEPES, and 6 glucose at pH 7.4. The internal solution contained (in mM) 140 CsCl, 4 MgCl2, 10 EGTA, and 10 HEPES-CsOH at pH 7.3. All the experiments were recorded using a HEKA EPC9 amplifier. The holding potential was −80 mV. A 500 ms voltage ramp from −80 to 80 mV was applied to record TRPV1 currents. The sample frequency was 50 kHz, and the signals were filtered at 2.9 kHz using PatchMaster software. Data were analyzed using Clampfit v.7 software (Molecular Devices, San Jose, CA, USA). The extracellular solution and ligands were administered using a VC-8 perfusion system (~2 mL/s, Warner Instruments, Holliston, MA, USA). We used capsaicin (Cayman Chemicals, nº 92350), SB366791 (nº 11019, Cayman Chemicals, Ann Arbor, MI, USA), and RVD-Hp (Synbio Technologies, Monmouth Junction, NJ, USA). We used dimethyl sulfoxide (DMSO, Sigma-Aldrich, St. Louis, MO, USA) and untransfected cells as controls. Electrophysiological recordings were performed at room temperature.
(§3) The data were analyzed and plotted using GraphPad software v10.0.2. We used the Shapiro–Wilk test to determine the data distribution. […] Statistically significant values were considered when p values were * p < 0.05, ** p < 0.01, *** p < 0.001, and **** p < 0.0001.

[3] = ref [106]; cited from earlier work
Description: Chronic pain is often accompanied by the development of depression. […] However, a significant challenge in utilizing RVD-Hp as a therapeutic agent lies in the inherent sensitivity of peptides to enzymatic degradation. […] Developing carriers that can stabilize RVD-Hp and facilitate its delivery to the brain is essent ...

human TRPV1 channel [4] = target: T1, human TRPV1 channel; assay: Calcium imaging (Fura Red-AM), HEK293 cells transfected with hTRPV1-GFP; assay type: cell-based; details: pH 7.4, room temperature
Method: as §1, §2, §3

rats = details: cited from earlier work
Description: Despite this, evidence of a direct interaction between Hp and the TRPV1 channel is lacking. We speculate that Hp binds and activates TRPV1, possibly engaging the same binding site as RVD-Hp. […] Thus, RVD-Hp emerges and holds potential as a novel modulator for non-opioid analgesia and anxiety treatment. […] Moreover, since RVD-Hp effectively blocks the open TRPV1 channel, it presents a promising approach to inhibit the population of TRPV1 channels that are pathologically over-activated, thereby ... || (+ 1 further places)

[5] = target: human TRPV1 channel coupled to GFP in its C-terminus (human) (UniProt Q8NER1)
Sequence of human TRPV1 channel coupled to GFP in its C-terminus (human) (Q8NER1 whole entry): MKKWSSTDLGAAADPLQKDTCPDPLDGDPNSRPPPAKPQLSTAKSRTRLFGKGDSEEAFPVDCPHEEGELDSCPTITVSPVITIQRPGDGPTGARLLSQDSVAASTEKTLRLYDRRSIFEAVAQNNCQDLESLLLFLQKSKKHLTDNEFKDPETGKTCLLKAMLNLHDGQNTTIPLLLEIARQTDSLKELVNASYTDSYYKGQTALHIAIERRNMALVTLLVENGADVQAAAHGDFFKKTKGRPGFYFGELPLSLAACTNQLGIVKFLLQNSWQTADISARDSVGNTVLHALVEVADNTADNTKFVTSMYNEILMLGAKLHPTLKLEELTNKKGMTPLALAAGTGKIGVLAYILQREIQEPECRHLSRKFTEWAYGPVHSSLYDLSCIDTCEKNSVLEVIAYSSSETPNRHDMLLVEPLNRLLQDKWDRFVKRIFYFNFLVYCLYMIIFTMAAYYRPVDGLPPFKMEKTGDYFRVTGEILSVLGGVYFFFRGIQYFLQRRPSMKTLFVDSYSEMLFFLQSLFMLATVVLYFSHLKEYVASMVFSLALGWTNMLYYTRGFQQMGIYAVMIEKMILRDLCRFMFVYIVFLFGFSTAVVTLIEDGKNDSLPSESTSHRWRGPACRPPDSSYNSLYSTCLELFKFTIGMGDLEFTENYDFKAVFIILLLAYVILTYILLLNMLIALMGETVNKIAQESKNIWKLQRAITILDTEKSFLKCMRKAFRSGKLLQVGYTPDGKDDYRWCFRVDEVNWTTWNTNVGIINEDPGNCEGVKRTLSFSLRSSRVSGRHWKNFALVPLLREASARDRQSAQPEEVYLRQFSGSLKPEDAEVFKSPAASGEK

T1 sequence (Q8NER1 whole entry): as above

Molecule: CCCCC/C=C\C/C=C\C/C=C\C/C=C\CCCC(=O)OC(CO)CO [2-arachidonoylglycerol]
TRPV1 activation (TRPV1 channel): activated

Molecule: COc1cc(CNC(=O)CCCC/C=C/C(C)C)ccc1O [CNTX-4975]
Adverse effects [1]: nausea, hypotension, oral hypoesthesia, and erythema

Molecule: CC(C)C[C@H](NC(=O)[C@H](CC(C)C)NC(=O)[C@H](CCCCN)NC(=O)[C@H](Cc1ccccc1)NC(=O)[C@H](CC(N)=O)NC(=O)[C@@H](NC(=O)[C@@H]1CCCN1C(=O)[C@H](CC(=O)O)NC(=O)[C@@H](NC(=O)[C@@H](N)CCCNC(=N)N)C(C)C)C(C)C)C(=O)N[C@@H](CO)C(=O)N[C@@H](Cc1cnc[nH]1)C(=O)O [RVD-Hp, RVD-hemopressin] (H-RVDPVNFKLLSH-OH)
IC50 (human TRPV1 channel [2]): 18.6 µM | Blood–brain barrier crossing [3]: cannot cross the blood–brain barrier | Stability in plasma [3]: low stability in plasma

Molecule: COc1cccc(NC(=O)/C=C/c2ccc(Cl)cc2)c1 [SB366791]
Block of Cap-induced increase in intracellular Ca^2+ concentration (human TRPV1 channel [4]; 1 µM Cap + 10 µM RVD-Hp (n: 60, * p < 0.032) or 10 µM SB366791 (n: 20, * p < 0.0113), comparison to Cap): partially blocked | Effect on intracellular Ca^2+ of the compound alone (human TRPV1 channel [4]; 10 µM alone, no Cap, RVD-Hp n: 59, SB366791 n: 51): Neither 10 µM RVD-Hp nor 10 µM SB366791 augmented the intracellular Ca^2+ | Current of compound alone compared with Cap-induced TRPV1 current (human TRPV1 channel [2]; 10 µM alone vs 1 µM Cap, ***** p < 0.0001): significantly different from the Cap-induced TRPV1 current | Current of compound alone compared with control (human TRPV1 channel [2]; 10 µM alone vs control (n: 7)): not different from the control | TRPV1 currents induced by the compound alone (human TRPV1 channel [2]; 10 µM alone, +80 mV, RVD-Hp n: 4, SB366791 n: 3, room temperature): Neither 10 µM RVD-Hp nor 10 µM SB366791 alone induced TRPV1 currents | Block of Cap-induced TRPV1 currents (human TRPV1 channel [2]; 10 µM with 1 µM Cap, +80 mV, RVD-Hp n: 4 (* p < 0.0214), SB366791 n: 4 (**** p < 0.0001), comparison to capsaicin, room temperature): blocked | Effect on Hp-induced anxious behavior (rats; SB366791 on Hp-induced behavior, ref [8]): mitigating impact; also recorded: mitigated | TRPV1 binding mode of antagonists (TRPV1 channel; requiring four molecules to induce channel closure, ref [88],[89]): bind to the vanilloid pocket and compete with capsaicin

Molecule: CCCCC/C=C\C/C=C\C/C=C\C/C=C\CCCC(=O)NCCO [anandamide]
TRPV1 activation (TRPV1 channel): activated

Molecule: Phosphoinositide
TRPV1 channel state (TRPV1 channel): favor the close state of the TRPV1 channel

Molecule: hemopressin
Anxiety-like behavior (Hp in rats) (rats; rats, ref [8],[9]): induces anxiety-like behavior in rats | Anxiety-/depressive-like behavior (rats; rodent models, ref [8]): induce anxiogenic and depressive-like behaviors

Molecule: lysophosphatidic acid
TRPV1 channel state (TRPV1 channel): induces channel opening

Molecule: oxytocin
TRPV1 activation and nociception (oxytocin) (TRPV1 channel; ref [67]): activate the TRPV1 channel and modulate nociception

Molecule: phosphatidylinositol 4,5-biphosphate
TRPV1 channel state (TRPV1 channel): favor the close state of the TRPV1 channel

whole-cell voltage clamp of HEK293 cells expressing TRPV1-GFP: inhibition of the TRPV1 current induced by 1 µM capsaicin (at +80 mV), RVD-Hp at 1, 10, 20 and 50 µM; IC50 [5]: 18.6 µM
Molecule: RVDPVNFKLLSH [RVD-hemopressin]
